Experimental data from patent US6841167B1, “β-carboline pharmaceutical compositions” (Lilly Icos LLC., priority 1999, dated 2005).

Experiments:
[1] = physical stability evaluation of solutions (microscope, drug crystals); type: physicochemical; conditions: PEG 400, room temperature and 4° C.
Protocol: The solutions then were allowed to cool to room temperature (RT). A portion of each solution was mixed with water (8 mg water per 100 mg solution) to mimic the water migration and retention processes occurring in a soft capsule. The solutions (with and without water) were stored at RT (room temperature) and at 4° C. for physical stability evaluation.

[2] = bioavailability of Compound A; conditions: in vivo

SMILES: CN1CC(=O)N2[C@H](c3ccc4c(c3)OCO4)c3[nH]c4ccccc4c3C[C@@H]2C1=O (relative stereo) [Compound A, (6R-trans)-6-(1,3-benzodioxol-5-yl)-2,3,6,7,12,12a-hexahydro-2-methylpyrazino-[1′, 2′:1, ]pyrido[3,4-b]indole-1,4-dione]
- drug concentration at which PEG 400 solution formulation is physically stable with respect to drug crystallization [1]: ≤ 2.8%
- bioavailability [2]: low and inconsistent bioavailability
